According to US11497206B2, “Cell cryopreservation protective composition and use thereof” (Tianjin University, priority 2016, dated 2022):
Structures can show the parent of a compound that is named as a salt.

Key:
sheep blood cells [1] = experiment: Recovery survival rate of blood cells after cryopreservation in liquid nitrogen, hemolysis by microplate reader; format: cell-based
Description: (§1) (1) The respective cell cryopreservation protective solutions (consisting merely of PBS and the effective ingredients for cryopreservation) were prepared according to the following Table 9; (2) about 1×10^7 sheep blood cells or 20 μL rabbit blood was taken and added into about 1.5 mL to 1.8 mL of the cell cryopreservation protective solutions, and the suspensions were put into suitable freezing tubes and directly placed in liquid nitrogen for cryopreservation; (3) after cryopreservation, the cells were thawed and recovered at 37° C.; the survival rates were investigated by using a microplate reader (trademark: TECAN, model: […] 200 PRO) to determine the hemolysis in each sample, and the method for determining hemolysis is as follows: The recovered samples, a sample of PBS and a sample of water were placed in a centrifuge for centrifugation (2000 r/min, 10 min), and thereafter the supernatants were taken; the light transmittance thereof was measured using the microplate reader and the survival rates of the blood cells were calculated.

rabbit blood = experiment: Recovery survival rate of blood after cryopreservation in liquid nitrogen, hemolysis by microplate reader; format: cell-based
Description: as §1

sheep blood cells [2] = experiment: Influence of washing operation on survival rate of blood cells after 24 h immersion; conditions: sheep blood cells immersed 24 h at 37° C., diluted 2 folds with PBS, washed by centrifugation (FIG. 11)
[3] = effective ingredient 1 mass % in PBS
[4] = effective ingredient 2 mass % in PBS
[5] = effective ingredient 3 mass % in PBS
[6] = effective ingredient 4 mass % in PBS
[7] = effective ingredient 5 mass % in PBS
[8] = effective ingredient 6 mass % in PBS
[9] = effective ingredient 40 mass % in PBS

SMILES	Recovery cell survival rate (sheep blood cells [1]; [3])	Recovery cell survival rate (sheep blood cells [1]; [4])	Recovery cell survival rate (sheep blood cells [1]; [5])	Recovery cell survival rate (sheep blood cells [1]; [6])	Recovery cell survival rate (sheep blood cells [1]; [7])	Recovery cell survival rate (sheep blood cells [1]; [8])	Recovery cell survival rate (rabbit blood; [8])	further results
C[N+](C)(C)CC(=O)[O-] [Betaine, trimethylammonium acetate]	25.4%	44.6%	49.3%	64.8%	70.6%	88.1%	85.4%	Recovery cell survival rate (rabbit blood; [6]): 55.2%; Recovery cell survival rate (rabbit blood; [7]): 75.1%; Recovery cell survival rate (rabbit blood; effective ingredient 15 mass % in PBS): 89.0%; Survival rates of blood cells before and after washing (sheep blood cells [2]): not affected
C=CC(=O)NCCC[N+](C)(C)CCC(=O)[O-] [Carboxybetaine (meth)acrylamide, (3-acryloylaminopropyl)-(2-carboxyethyl)-dimethylammonium]				71.3%			65.1%	
C[S+](C)[O-] [DMSO, Dimethyl sulfoxide]	8.9%	24.4%	32.4%	44.4%	57.0%	40.8%		
OCC(O)CO [Glycerol]	21.7%	36.5%	43.5%	31.8%	8.8%	14.4%		Recovery cell survival rate (sheep blood cells [1]; effective ingredient 10 mass % in PBS): 35.8%; Recovery cell survival rate (sheep blood cells [1]; [9]): 48.0%; Recovery cell survival rate (rabbit blood; [9]): 32.6%
C[N+](C)(C)C[C@H](O)CC(=O)[O-] [L-carnitine, 3-carboxy-2-hydroxy-N,N,N-trimethyl-1-propanaminium inner salt (2R)]						84.0%	84.3%	
C=C(C)C(=O)OCCOP(=O)([O-])OCC[N+](C)(C)C [Phosphorylcholine derivative, 2-(methacryloyloxy)ethyl-2-(trimethylammonio)ethyl phosphate]				80.9%			73.9%	
C=C(C)C(=O)OCC[N+](C)(C)CCCS(=O)(=O)[O-] [Sulfobetaine, 3-[dimethyl-[2-(2-methylprop-2-enoyloxy)ethyl]azaniumyl]propane-1-sulfonate]				75.6%			73.6%	
